Reference: PMC7949057, “The cytoprotective protein MANF promotes neuronal survival independently from its role as a GRP78 cofactor” (The Journal of Biological Chemistry, 2021)
Substitutions are numbered along the chain they refer to.

Assays:
Assay type in all cases: binding
MANF [1] = biological target: T1, MANF (Homo sapiens, UniProt P55145); test: microscale thermophoresis
T1 construct: mature secreted protein (about 18 kDa, signal peptide cleaved), made in CHO-derived cells (QMCF, Icosagen), no tag told; amine-labelled with RED-NHS for MST
T1 sequence (P55145 25-182): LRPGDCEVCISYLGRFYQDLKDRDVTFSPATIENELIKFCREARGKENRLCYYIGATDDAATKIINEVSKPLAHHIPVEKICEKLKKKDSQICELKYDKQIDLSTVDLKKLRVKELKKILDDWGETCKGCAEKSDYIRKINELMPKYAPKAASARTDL
Text: microscale thermophoresis on MANF | MANF did interact with ADP, ATP, and AMP–PNP with Kd-s of […]

MANF [2] = biological target: T2, MANF (Homo sapiens, UniProt P55145, V137G/K138A, form not given); test: microscale thermophoresis; details: labelled MANF 50 nM; 10 mM Na-phosphate pH 7.4, 1 mM MgCl2, 3 mM KCl, 150 mM NaCl, 0.05% Tween-20; 25 °C; 1:1 fit
T2 construct: mature secreted protein (about 18 kDa, signal peptide cleaved), made in CHO-derived cells (QMCF, Icosagen), no tag told; amine-labelled with RED-NHS for MST
T2 sequence (P55145 25-182 V137G/K138A): T1 sequence (P55145 25-182) with V113G, K114A
Text: microscale thermophoresis on MANF | the mutant was able to bind ATP similarly to the wild-type MANF

C-MANF = biological target: T3, C-MANF (Homo sapiens, UniProt P55145); test: […]-HSQC NMR chemical shift perturbation; details: 100 μM C-MANF, ATP:protein 0.5 to 10; 20 mM sodium phosphate pH 6.5, 50 mM NaCl; 25 °C; site at V134, K135
T3 sequence (P55145 120-182 limits assumed): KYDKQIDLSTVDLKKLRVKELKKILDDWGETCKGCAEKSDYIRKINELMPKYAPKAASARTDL

GRP78 = biological target: T4, GRP78 (Cricetulus griseus, UniProt G3I8R9); test: fluorescent nucleotide release (ex […] nm, em […] nm); details: labelled compound; GRP78 1.25 μM, MABA-ADP 1.25 μM, chase ATP 125 μM, no MANF; 50 mM HEPES-KOH pH 7.4, 100 mM KCl, 10 mM MgCl2
T4 construct: gene HSPA5; full-length recombinant, N-terminal His-tag, labelled with RED-tris-NTA for MST
T4 sequence (G3I8R9 19-654): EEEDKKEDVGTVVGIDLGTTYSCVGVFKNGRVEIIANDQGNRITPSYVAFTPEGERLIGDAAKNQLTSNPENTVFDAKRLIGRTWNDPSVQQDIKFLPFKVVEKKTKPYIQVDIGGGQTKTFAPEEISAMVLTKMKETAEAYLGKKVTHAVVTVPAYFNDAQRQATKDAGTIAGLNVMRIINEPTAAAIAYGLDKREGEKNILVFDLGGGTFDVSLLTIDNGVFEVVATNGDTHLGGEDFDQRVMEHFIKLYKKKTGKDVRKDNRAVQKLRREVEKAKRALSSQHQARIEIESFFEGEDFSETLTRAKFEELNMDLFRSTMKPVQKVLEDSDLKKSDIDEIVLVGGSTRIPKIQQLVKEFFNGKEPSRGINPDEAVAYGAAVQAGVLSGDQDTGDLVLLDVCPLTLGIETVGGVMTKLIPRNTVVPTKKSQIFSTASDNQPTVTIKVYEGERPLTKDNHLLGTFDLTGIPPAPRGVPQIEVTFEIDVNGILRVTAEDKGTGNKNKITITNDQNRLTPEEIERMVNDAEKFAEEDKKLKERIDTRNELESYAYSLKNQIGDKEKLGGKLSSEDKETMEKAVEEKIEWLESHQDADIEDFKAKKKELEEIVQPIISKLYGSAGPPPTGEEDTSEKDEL

SMILES | Kd (MANF [1]) | Kd (MANF [2]) | 15N-HSQC NMR chemical shift perturbation (C-MANF) | koff (GRP78)
Nc1ncnc2c1ncn2[C@@H]1O[C@H](COP(=O)(O)OP(=O)(O)O)[C@@H](O)[C@H]1O [ADP] | 880 ± 280 µM |  |  | 
Nc1ncnc2c1ncn2[C@@H]1O[C@H](COP(=O)(O)OP(=O)(O)NP(=O)(O)O)[C@@H](O)[C@H]1O [AMP–PNP] | 560 ± 170 µM |  |  | 
Nc1ncnc2c1ncn2[C@@H]1O[C@H](COP(=O)(O)OP(=O)(O)OP(=O)(O)O)[C@@H](O)[C@H]1O [ATP] | 830 ± 390 µM | 339 ± 160 µM | the ATP binding site is located at the C-terminal domain of MANF | 
CNc1ccccc1C(=O)NCCCCNc1nc2c(N)ncnc2n1[C@@H]1O[C@H](COP(=O)(O)OP(=O)(O)O)[C@@H](O)[C@H]1O [MABA–ADP] |  |  |  | determine the mean koff rates of MABA–ADP release
